The results in this text go back to ChEMBL document CHEMBL3813592, “Discovery of Novel Tricyclic Heterocycles as Potent and Selective DPP-4 Inhibitors for the Treatment of Type 2 Diabetes” (ACS Med Chem Lett, 2016).

Active and inactive are the calls of the source. The calls are words filed in the database; no cut-off is given here. A value given as a limit tells only on which side of the number the result lay.

A short description of data set [1]: Intrinsic clearance in human hepatocytes assessed per 10^6 cells at 1 uM after 30 to 120 mins by LC-MS/MS analysis. Format: ADME, cell-based, Hepatocyte. To be noted: read-out: CLH.
Data set [2] in a line: Intrinsic clearance in rat hepatocytes assessed per 10^6 cells at 1 uM after 30 to 120 mins by LC-MS/MS analysis. It counts as ADME, cell-based, Hepatocyte. To be noted: read-out: CLH.
Data set [3] in a line: Plasma concentration in C57BL/6N mouse at 0.3 mg/kg, po administered for 60 mins followed by dextrose challenge during OGTT method. It counts as ADME, organism-based.
Data set [4] relates to Mus musculus. Description: Ex vivo inhibition of DPP4 in C57BL/6N mouse blood at 1 to 10 mg/kg, po measured after 24 hrs. It counts as functional, organism-based.
In data set [5] the test system is Mus musculus. Nature of the data set: Antidiabetic activity in po dosed C57BL/6N mouse assessed as reduction in blood glucose AUC after 60 mins followed by dextrose challenge by OGTT. Format: functional, organism-based.
Data set [6] has as its system Mus musculus. Description: Antidiabetic activity in C57BL/6N mouse assessed as reduction in blood glucose AUC at 0.3 mg/kg, po administered for 60 mins followed by dextrose challenge by OGTT. Format: functional. The arrangement: scale not given: the % may be the effect or the level left.
Data set [7] concerns Mus musculus. Nature of the data set: Ex vivo inhibition of DPP4 in C57BL/6N mouse blood at 3 to 10 mg/kg, po measured after 2 to 6 hrs. It counts as functional.
Data set [8] is described as follows: Plasma concentration in C57BL/6N mouse at 10 mg/kg, po administered for 60 mins followed by dextrose challenge during OGTT method. It counts as ADME, organism-based.
Data set [9] can be described thus: Plasma concentration in C57BL/6N mouse at 3 mg/kg, po administered for 60 mins followed by dextrose challenge during OGTT method. Format: ADME, organism-based.
Data set [10] is described as follows: Plasma concentration in C57BL/6N mouse at 1 mg/kg, po administered for 60 mins followed by dextrose challenge during OGTT method. Format: ADME, organism-based.
A short description of data set [11]: Intrinsic clearance in dog hepatocytes assessed per 10^6 cells at 1 uM after 30 to 120 mins by LC-MS/MS analysis. Format: ADME, cell-based, Canis lupus familiaris, Hepatocyte. As to conditions: read-out: CLH.
A short description of data set [12]: Intrinsic clearance in cynomolgus monkey hepatocytes assessed per 10^6 cells at 1 uM after 30 to 120 mins by LC-MS/MS analysis. Format: ADME, cell-based, Macaca fascicularis, Hepatocyte. As to conditions: read-out: CLH.
For data set [13], the system named is Mus musculus. Description: Antidiabetic activity in C57BL/6N mouse assessed as reduction in blood glucose AUC at 1 mg/kg, po administered for 60 mins followed by dextrose challenge by OGTT. Format: functional. On the set-up: scale not given: the % may be the effect or the level left.
The test system of data set [14] is Mus musculus. Description: Antidiabetic activity in C57BL/6N mouse assessed as reduction in blood glucose AUC at 10 mg/kg, po administered for 60 mins followed by dextrose challenge by OGTT. Format: functional. On the set-up: scale not given: the % may be the effect or the level left.
In data set [15] the test system is Mus musculus. Nature of the data set: Antidiabetic activity in C57BL/6N mouse assessed as reduction in blood glucose AUC at 3 mg/kg, po administered for 60 mins followed by dextrose challenge by OGTT. Format: functional. The arrangement: scale not given: the % may be the effect or the level left.

As to `CN1C(=O)Cn2c1nc1nc(N3CCC[C@@H](N)C3)n(Cc3cc(F)ccc3C#N)c1c2=O`, the hepatocyte CLint at 1 µM in data set [1] was 0.1 µL/min/1e6 cells; in data set [2], 0.3 µL/min/1e6 cells; in data set [11], < 1 µL/min/1e6 cells; in [12], < 1 µL/min/1e6 cells. In addition, the concentration at 1 h amounted to 2 nM in data set [3], 235 nM in [8], 70 nM in data set [9] and 10 nM in [10]. The inhibition result with Mus musculus [4] was “inactive”. For the same compound, the Activity result in the data set with Mus musculus [5] is “Dose-dependent effect”; with Mus musculus [6], 38%; with Mus musculus [13] it was 52%; in the data set on Mus musculus [14] it was 63%; with Mus musculus [15] it was 64%. The “inhibition (INH)” value in the data set with Mus musculus [7] is >80%.
`Cn1c(=O)cc(N2CCC[C@@H](N)C2)n(Cc2ccccc2C#N)c1=O`: the result in the data set on Mus musculus [15] was Active.
